For one assay, the target named is Lyn tyrosine kinase (Homo sapiens (Human), UniProt P07948). In words: in vitro Lyn tyrosine kinase inhibition. It is filed as biochemical. The conditions noted are these: for inhibition at 1 µM: read-out: % inhibition against Lyn.
A further assay concerns the target c-Src tyrosine kinase (Homo sapiens (Human), UniProt P12931). In words: in vitro c-Src tyrosine kinase inhibition (32P-ATP, poly(D4Y)n substrate). The assay is classed as biochemical. Conditions: for inhibition at 1 µM: read-out: % inhibition against c-Src.
The test system of assay [1] is TNF-α synthesis in J744A.1 macrophages. In words: inhibition of TNF-α synthesis in LPS-activated macrophages (ELISA). The conditions noted are these: Macrophage, read-out: Inhibition (%) of TNF-α synthesis. It is filed as cell-based. (In general: In an ELISA, binding on a coated surface is turned into a signal by an enzyme label.)
Assay [2] deals with NO synthesis in J744A.1 macrophage. In words: inhibition of nitric oxide (NO) synthesis in LPS-activated macrophages (Griess reagent). The assay is classed as cell-based. The conditions noted are these: read-out: Inhibition (%) of NO synthesis. On the technique in general: Nitrite, measured by Griess reagent, commonly stands in for NO production.
The next assay deals with DDR2 tyrosine kinase (Homo sapiens (Human), UniProt Q16832). In words: in vitro DDR2 tyrosine kinase inhibition (GST-fused kinase domain). It is filed as biochemical. The conditions noted are these: for inhibition at 1 µM: read-out: % inhibition against DDR2.
In a further assay the target is Fgr tyrosine kinase (Homo sapiens (Human), UniProt P09769). In words: in vitro Fgr tyrosine kinase inhibition. It is filed as biochemical. Conditions: for inhibition at 1 µM: read-out: % inhibition against Fgr.
Another assay deals with Hck tyrosine kinase (Homo sapiens (Human), UniProt P08631). In words: in vitro Hck tyrosine kinase inhibition. It is filed as biochemical. The conditions noted are these: for inhibition at 1 µM: read-out: % inhibition against Hck.
The target in another assay is DDR1 tyrosine kinase (Homo sapiens (Human), UniProt Q08345). In words: in vitro DDR1 tyrosine kinase inhibition (GST-fused kinase domain). The assay is classed as biochemical. Conditions: for inhibition at 1 µM: read-out: % inhibition against DDR1.
Another assay concerns mouse skin fibroblast. In words: inhibition of migration of activated fibroblast (scratch wound). The assay is classed as cell-based. Conditions: 0.5 uM compound, 10 ng/ml TGF-β1, 24 hours, read-out: Inhibition (%) of migration of activated fibroblast. As to the method: The straight line of regular width was made using a micro pipette tip for a scratch wound on the mono-layer culture, and then the culture was exchanged to DMEM medium and incubated with 10 ng/ml of TGF-β1 in cell culture incubator of 37° C. for 24 hours. The cultured cells were fixed using formalin and stained with crystal violet. Photo-pictures were taken at 100× magnification in five location selected randomly in the scratched wound site of each stained culture dish and then the number of the cells moved into the scratched wound area was counted and averaged.

The subject of assay [3] is α-smooth muscle actin protein expression in skin fibroblast cells. In words: inhibition of α-smooth muscle actin expression in fibroblast activated by type I collagen and TGF-β1 (western blotting). It is filed as cell-based, Balb/C mouse. The conditions noted are these: Mus musculus, 0.5 uM compound, 10 ng/ml TGF-β1, 48 hours, type I collagen, read-out: Inhibition (%) of α-smooth muscle actin increase. The text has this:
When fibroblast, […] alpha smooth muscle cells are converted to myofibroblast by activation, one of characteristic features is that α-smooth muscle actin protein expression is increased. Also myoblast cells with the increased α-smooth muscle actin expression have a character of an increased migration. These phenomena appear together with the activation of inflammatory cells and the activated myoblast-type cells are known to contribute directly to the pathology of inflammatory diseases. […] In this experiment, the expression level of alpha smooth muscle actin can be quantificated by measuring the density of α-smooth muscle actin protein band with densitometer after developing the X-ray film of chemiluminescence signal in western blotting experiment.
Background: Immunoblotting shows a protein as a band on a membrane.

The mark [4] stands for this setting: 10 μM compound, 100 ng/ml LPS, 6 hours.

Where two headings read alike, the source gives them in different places. Bounds are passed on as bounds.

Chain of c-Src tyrosine kinase (P12931 whole entry, looked up): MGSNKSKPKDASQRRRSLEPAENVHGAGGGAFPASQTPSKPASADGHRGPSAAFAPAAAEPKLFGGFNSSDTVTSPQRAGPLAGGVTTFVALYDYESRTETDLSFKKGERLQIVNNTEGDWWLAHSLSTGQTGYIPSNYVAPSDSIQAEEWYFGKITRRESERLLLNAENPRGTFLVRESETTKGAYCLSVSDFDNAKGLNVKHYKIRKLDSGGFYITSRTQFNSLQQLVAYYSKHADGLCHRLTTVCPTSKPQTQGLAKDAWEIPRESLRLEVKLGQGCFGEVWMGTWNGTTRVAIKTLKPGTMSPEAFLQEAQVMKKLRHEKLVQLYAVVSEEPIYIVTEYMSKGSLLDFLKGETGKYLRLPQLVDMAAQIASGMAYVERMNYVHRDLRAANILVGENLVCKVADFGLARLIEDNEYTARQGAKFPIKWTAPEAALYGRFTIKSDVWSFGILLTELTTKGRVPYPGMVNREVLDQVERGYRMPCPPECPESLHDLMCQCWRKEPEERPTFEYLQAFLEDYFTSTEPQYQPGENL
Chain of DDR1 tyrosine kinase (Q08345 610-905): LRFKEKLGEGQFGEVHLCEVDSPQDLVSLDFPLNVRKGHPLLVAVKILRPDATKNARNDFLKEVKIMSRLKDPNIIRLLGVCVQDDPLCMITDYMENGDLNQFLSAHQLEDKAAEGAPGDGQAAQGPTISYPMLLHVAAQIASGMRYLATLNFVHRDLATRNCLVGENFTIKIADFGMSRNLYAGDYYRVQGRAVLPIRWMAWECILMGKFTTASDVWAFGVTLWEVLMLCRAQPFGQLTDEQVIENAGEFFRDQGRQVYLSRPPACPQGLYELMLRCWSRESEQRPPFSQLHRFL
Chain of DDR2 tyrosine kinase (Q16832 563-849): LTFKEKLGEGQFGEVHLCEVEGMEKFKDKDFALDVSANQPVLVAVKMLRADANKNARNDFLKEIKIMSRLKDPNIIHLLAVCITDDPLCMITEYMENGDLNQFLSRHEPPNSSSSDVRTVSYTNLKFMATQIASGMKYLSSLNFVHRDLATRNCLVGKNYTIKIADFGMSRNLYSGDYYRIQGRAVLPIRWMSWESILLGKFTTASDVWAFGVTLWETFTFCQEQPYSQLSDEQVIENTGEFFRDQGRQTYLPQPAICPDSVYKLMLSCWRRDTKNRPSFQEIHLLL
Chain of Fgr tyrosine kinase (P09769 whole entry): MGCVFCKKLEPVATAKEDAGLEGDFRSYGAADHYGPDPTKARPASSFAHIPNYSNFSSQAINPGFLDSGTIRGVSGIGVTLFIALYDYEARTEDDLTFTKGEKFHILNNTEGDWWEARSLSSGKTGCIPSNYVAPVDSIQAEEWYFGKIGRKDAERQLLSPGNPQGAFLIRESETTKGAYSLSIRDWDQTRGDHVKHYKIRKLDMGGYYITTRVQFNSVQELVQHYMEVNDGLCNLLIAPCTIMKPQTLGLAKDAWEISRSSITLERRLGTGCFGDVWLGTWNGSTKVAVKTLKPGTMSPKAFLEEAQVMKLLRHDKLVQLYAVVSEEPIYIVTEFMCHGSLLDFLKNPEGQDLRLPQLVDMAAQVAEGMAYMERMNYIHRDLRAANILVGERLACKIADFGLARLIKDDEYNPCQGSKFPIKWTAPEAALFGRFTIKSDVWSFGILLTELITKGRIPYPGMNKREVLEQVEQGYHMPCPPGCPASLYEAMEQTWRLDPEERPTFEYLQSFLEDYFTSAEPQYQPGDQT
Chain of Lyn tyrosine kinase (P07948 whole entry): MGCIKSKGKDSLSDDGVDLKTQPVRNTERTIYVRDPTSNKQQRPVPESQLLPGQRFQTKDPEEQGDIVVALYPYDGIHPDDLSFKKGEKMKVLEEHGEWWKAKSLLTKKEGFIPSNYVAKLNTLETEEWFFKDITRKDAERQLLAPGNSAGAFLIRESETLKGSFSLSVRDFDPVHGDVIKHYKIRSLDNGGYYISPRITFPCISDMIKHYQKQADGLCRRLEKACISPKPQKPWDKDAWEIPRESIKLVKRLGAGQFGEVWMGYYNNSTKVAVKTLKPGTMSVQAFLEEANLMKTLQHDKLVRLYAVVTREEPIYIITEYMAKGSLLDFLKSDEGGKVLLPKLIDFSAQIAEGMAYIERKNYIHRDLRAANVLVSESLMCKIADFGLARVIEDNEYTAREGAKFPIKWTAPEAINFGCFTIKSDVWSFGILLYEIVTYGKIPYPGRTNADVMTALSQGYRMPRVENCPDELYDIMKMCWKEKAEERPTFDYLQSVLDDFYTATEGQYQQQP
Chain of Hck tyrosine kinase (P08631 whole entry, the tested form may be a part): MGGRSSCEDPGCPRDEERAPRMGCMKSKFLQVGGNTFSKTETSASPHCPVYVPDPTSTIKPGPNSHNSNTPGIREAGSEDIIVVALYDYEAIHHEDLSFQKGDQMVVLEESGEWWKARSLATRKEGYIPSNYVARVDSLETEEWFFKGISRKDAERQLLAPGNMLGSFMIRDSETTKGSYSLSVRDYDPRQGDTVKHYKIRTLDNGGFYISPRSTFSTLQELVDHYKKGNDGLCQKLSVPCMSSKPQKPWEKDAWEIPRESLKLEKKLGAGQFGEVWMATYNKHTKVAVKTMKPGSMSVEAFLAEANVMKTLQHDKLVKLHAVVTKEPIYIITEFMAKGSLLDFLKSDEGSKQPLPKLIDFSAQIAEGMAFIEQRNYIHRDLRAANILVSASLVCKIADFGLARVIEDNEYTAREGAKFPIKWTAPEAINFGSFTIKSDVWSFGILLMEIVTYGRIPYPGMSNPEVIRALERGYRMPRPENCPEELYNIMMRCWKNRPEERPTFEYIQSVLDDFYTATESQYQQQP

As for `COc1cccc(Nc2ncnc3cc(-c4ccc(OCCN5CCOCC5)cc4)sc23)c1` [LCB 03-0018, N-(3-methoxyphenyl)-6-(4-(2-morpholinoethoxy)phenyl)thieno[3,2-d]pyrimidin-4-amine], the inhibition at 1 µM on Lyn tyrosine kinase (1 uM compound), on c-Src tyrosine kinase (1 uM compound), on DDR2 tyrosine kinase (1 uM compound), on Fgr tyrosine kinase (1 uM compound), on Hck tyrosine kinase (1 uM compound) and at DDR1 tyrosine kinase (1 uM compound) was above 70% throughout. Moreover, the inhibition at 10 µM was 68% in assay [1] (setting [4]) and 89% in [2] (10 μM compound, LPS, 24 hours).
`COc1cccc(Nc2ncnc3cc(-c4cccs4)sc23)c1` [LCB 03-0030, (3-Methoxyphenyl)-(6-thiophene-2-yl-thieno[3,2-d]pyrimidin-4-yl)-amine]: at Lyn tyrosine kinase (1 uM compound), the “% inhibition against Lyn” value was above 40%. Also, at c-Src tyrosine kinase (1 uM compound), the “% inhibition against c-Src” value is reported as above 40%. For the same molecule, the inhibition at 10 µM in assay [1] (setting [4]) was 80%; in [2] (10 μM compound, LPS, 24 hours) it was 96%. Also, the “% inhibition against DDR2” value on DDR2 tyrosine kinase (1 uM compound) was above 70%. Further, the “% inhibition against Fgr” value on Fgr tyrosine kinase (1 uM compound) is above 30%. For the same molecule, the “% inhibition against Hck” value on Hck tyrosine kinase (1 uM compound) was above 30%. On DDR1 tyrosine kinase (1 uM compound), the “% inhibition against DDR1” value is recorded as above 70%.
As to `Oc1cccc(Nc2ncnc3cc(-c4ccco4)sc23)c1` [LCB 03-0038, 3-(6-(furan-2-yl)thieno[3,2-d]pyrimidin-4-ylamino)phenol], the inhibition at 1 µM was above 60% at Lyn tyrosine kinase (1 uM compound); above 60% at c-Src tyrosine kinase (1 uM compound); above 70% on DDR2 tyrosine kinase (1 uM compound); above 50% at Fgr tyrosine kinase (1 uM compound); above 50% at Hck tyrosine kinase (1 uM compound); above 70% at DDR1 tyrosine kinase (1 uM compound). In addition, the inhibition at 10 µM was 85% in assay [1] (setting [4]) and 88% in [2] (10 μM compound, LPS, 24 hours).
With `Oc1cccc(Nc2ncnc3cc(-c4ccoc4)sc23)c1` [LCB 03-0039, 3-(6-(furan-3-yl)thieno[3,2-d]pyrimidin-4-ylamino)phenol], the inhibition at 1 µM on Lyn tyrosine kinase (1 uM compound) was above 50%; on c-Src tyrosine kinase (1 uM compound) it was above 50%; at DDR2 tyrosine kinase (1 uM compound), above 70%; at Fgr tyrosine kinase (1 uM compound) it was above 50%; on Hck tyrosine kinase (1 uM compound) it was above 50%; on DDR1 tyrosine kinase (1 uM compound), above 70%. Further, the inhibition at 10 µM in assay [1] (setting [4]) was 80%; in assay [2] (10 μM compound, LPS, 24 hours) it was 80%.
On to `O=C(Cc1ccc(-c2cc3ncnc(Nc4cccc(O)c4)c3s2)cc1)N1CCCC1` [LCB 03-0049, 2-(4-(4-(3-hydroxyphenylamino)thieno[3,2-d]pyrimidin-6-yl)phenyl)-1-(pyrrolidin-1-yl)ethanone], for which the inhibition at 1 µM at Lyn tyrosine kinase (1 uM compound) was above 40%; on c-Src tyrosine kinase (1 uM compound), above 40%; at DDR2 tyrosine kinase (1 uM compound) it was above 80%; on Fgr tyrosine kinase (1 uM compound) it was above 40%; at Hck tyrosine kinase (1 uM compound) it was above 40%; at DDR1 tyrosine kinase (1 uM compound), above 80%. Also, the inhibition at 10 µM was determined as 57% in assay [1] (setting [4]) and 88% in assay [2] (10 μM compound, LPS, 24 hours).
In the case of `O=C(c1cccc(-c2cc3ncnc(Nc4cccc(O)c4)c3s2)c1)N1CCCC1` [LCB 03-0053, (3-(4-(3-hydroxyphenylamino)thieno[3,2-d]pyrimidin-6-yl)phenyl)(pyrrolidin-1-yl)methanone], the inhibition at 1 µM is above 70% on Lyn tyrosine kinase (1 uM compound); above 70% on c-Src tyrosine kinase (1 uM compound); above 80% at DDR2 tyrosine kinase (1 uM compound); above 70% at Fgr tyrosine kinase (1 uM compound); above 70% on Hck tyrosine kinase (1 uM compound); above 80% at DDR1 tyrosine kinase (1 uM compound). Also, the inhibition at 10 µM stood at 83% in [1] (setting [4]) and 94% in assay [2] (10 μM compound, LPS, 24 hours).
Take `CCN(CC)C(=O)c1cccc(-c2cc3ncnc(Nc4cccc(O)c4)c3s2)c1` [LCB 03-0054, N,N-diethyl-3-(4-(3-hydroxyphenylamino)thieno[3,2-d]pyrimidin-6-yl)benzamide]: the inhibition at 1 µM on Lyn tyrosine kinase (1 uM compound) was above 50%; on c-Src tyrosine kinase (1 uM compound), above 60%; at DDR2 tyrosine kinase (1 uM compound), above 80%; at Fgr tyrosine kinase (1 uM compound) it was above 60%; at Hck tyrosine kinase (1 uM compound), above 60%; at DDR1 tyrosine kinase (1 uM compound), above 80%. Also, the inhibition at 10 µM amounted to 77% in [1] (setting [4]) and 92% in assay [2] (10 μM compound, LPS, 24 hours).
In the case of `OCC1CCCN1Cc1ccc(-c2cc3ncnc(Nc4cccc(O)c4)c3s2)cc1` (centres unmarked) [LCB 03-0057, 3-(6-(4-((2-(hydroxymethyl)pyrrolidin-1-yl)methyl)phenyl)thieno[3,2-d]pyrimidin-4-ylamino)phenol], the inhibition at 1 µM on Lyn tyrosine kinase (1 uM compound) was above 50%; on c-Src tyrosine kinase (1 uM compound), above 50%; at DDR2 tyrosine kinase (1 uM compound) it was above 80%; on Fgr tyrosine kinase (1 uM compound) it was above 50%; at Hck tyrosine kinase (1 uM compound), above 50%; at DDR1 tyrosine kinase (1 uM compound), above 80%. Also, the inhibition at 10 µM is 64% in [1] (setting [4]) and 87% in assay [2] (10 μM compound, LPS, 24 hours).
Consider `CC1CCN(Cc2ccc(-c3cc4ncnc(Nc5cccc(O)c5)c4s3)cc2)CC1` [LCB 03-0058, 3-(6-(4-((4-methylpiperidin-1-yl)methyl)phenyl)thieno[3,2-d]pyrimidin-4-ylamino)phenol], for which the inhibition at 1 µM at Lyn tyrosine kinase (1 uM compound) is above 40%; at c-Src tyrosine kinase (1 uM compound), above 40%; at DDR2 tyrosine kinase (1 uM compound), above 80%; on Fgr tyrosine kinase (1 uM compound), above 40%; on Hck tyrosine kinase (1 uM compound) it was above 40%; on DDR1 tyrosine kinase (1 uM compound) it was above 80%. Moreover, the inhibition at 10 µM in [1] (setting [4]) came out at 58%; in [2] (10 μM compound, LPS, 24 hours), 80%.
As to `Oc1cccc(Nc2ccnc3cc(-c4ccc(CN5CCCCC5)cc4)sc23)c1` [LCB 03-0097, 3-(2-(4-(piperidin-1-ylmethyl)phenyl)thieno[3,2-b]pyridin-7-ylamino)phenol], the inhibition at 1 µM was above 30% at Lyn tyrosine kinase (1 uM compound); above 30% on c-Src tyrosine kinase (1 uM compound); above 80% on DDR2 tyrosine kinase (1 uM compound); above 30% on Fgr tyrosine kinase (1 uM compound); above 30% on Hck tyrosine kinase (1 uM compound); above 80% at DDR1 tyrosine kinase (1 uM compound). The values for the inhibition at 0.5 µM (in the assay with mouse skin fibroblast; in [3]) were 34% and 45%, respectively.
Take `Oc1cccc(Nc2ccnc3cc(-c4ccc(CN5CCNCC5)cc4)sc23)c1` [LCB 03-0098, 3-(2-(4-(piperazin-1-ylmethyl)phenyl)thieno[3,2-b]pyridin-7-ylamino)phenol]: the inhibition at 1 µM at Lyn tyrosine kinase (1 uM compound) is above 30%; on c-Src tyrosine kinase (1 uM compound) it was above 30%; at DDR2 tyrosine kinase (1 uM compound), above 80%; at Fgr tyrosine kinase (1 uM compound), above 30%; on Hck tyrosine kinase (1 uM compound), above 30%; at DDR1 tyrosine kinase (1 uM compound) it was above 80%. Moreover, the inhibition at 0.5 µM was found to be 34% in the assay on mouse skin fibroblast and 51% in assay [3].
Take `CCNCc1ccc(-c2cc3nccc(Nc4cccc(O)c4)c3s2)cc1` [LCB 03-0099, 3-(2-(4-((ethylamino)methyl)phenyl)thieno[3,2-b]pyridin-7-ylamino)phenol]: the inhibition at 1 µM at Lyn tyrosine kinase (1 uM compound) is above 30%; at c-Src tyrosine kinase (1 uM compound), above 30%; at DDR2 tyrosine kinase (1 uM compound), above 80%; on Fgr tyrosine kinase (1 uM compound) it was above 30%; at Hck tyrosine kinase (1 uM compound), above 30%; on DDR1 tyrosine kinase (1 uM compound) it was above 80%. Also, the values for the inhibition at 0.5 µM (with mouse skin fibroblast; in [3]) were 29% and 39%, respectively.
Regarding `Oc1cccc(Nc2ncnc3cc(-c4cc(CN5CCCC5)cs4)sc23)c1` [LCB 03-0101, 3-(6-(4-(pyrrolidin-1-ylmethyl)thiophene-2-yl)thieno[3,2-d]pyrimidin-4-ylamino)phenol], the inhibition at 1 µM on Lyn tyrosine kinase, on c-Src tyrosine kinase, at DDR2 tyrosine kinase, on Fgr tyrosine kinase, on Hck tyrosine kinase and at DDR1 tyrosine kinase was above 70% each time. Besides, the inhibition at 10 µM came to 71% in assay [1] (6 h) and 76% in [2] (24 h).

These data come from US9062066B2, “Anti-inflammatory compound having inhibitory activity against multiple tyrosine kinases and pharmaceutical composition containing same” (KOREA INSTITUTE OF SCIENCE AND TECHNOLOGY, priority 2010, dated 2015).
